Source: ChEMBL document CHEMBL3259698, “Reductions in log P improved protein binding and clearance predictions enabling the prospective design of cannabinoid receptor (CB1) antagonists with desired pharmacokinetic properties” (J Med Chem, 2013)
≈ marks a conversion by molar mass, not a printed value. Blank lines part the entries; values can stand above or below the compound they belong to.

Legend:
[1] = Aqueous solubility of the compound; assay type: physicochemical; conditions: buffer
[2] = Elimination half life in iv dosed dog; assay type: ADME, organism-based, Canis lupus familiaris; conditions: in vivo, read-out: beta t1/2 (converted)
[3] = Lipophilicity, log P of the compound by HPLC analysis; assay type: physicochemical
Cannabinoid receptor 1 = Cannabinoid receptor 1 (Homo sapiens, UniProt P21554); test: Binding affinity to human CB1 receptor expressed in CHO cells by radioligand displacement based scintillation counting analysis; assay type: cell-based
Sequence of Cannabinoid receptor 1 (P21554 whole entry): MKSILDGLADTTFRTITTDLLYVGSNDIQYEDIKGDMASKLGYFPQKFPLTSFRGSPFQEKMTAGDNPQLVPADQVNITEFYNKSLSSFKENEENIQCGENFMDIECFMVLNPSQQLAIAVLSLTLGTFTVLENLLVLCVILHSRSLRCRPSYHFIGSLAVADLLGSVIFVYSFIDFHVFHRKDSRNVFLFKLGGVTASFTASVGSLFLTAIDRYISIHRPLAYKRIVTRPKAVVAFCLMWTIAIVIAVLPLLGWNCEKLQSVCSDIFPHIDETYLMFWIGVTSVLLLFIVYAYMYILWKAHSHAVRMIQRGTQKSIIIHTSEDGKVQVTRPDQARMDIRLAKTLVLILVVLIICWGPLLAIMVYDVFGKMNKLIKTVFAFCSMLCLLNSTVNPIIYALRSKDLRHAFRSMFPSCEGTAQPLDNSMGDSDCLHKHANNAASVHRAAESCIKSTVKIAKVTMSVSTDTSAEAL

Cytochrome P450 2C9 = Cytochrome P450 2C9 (Homo sapiens, UniProt P11712); test: Inhibition of human recombinant CYP2C9; assay type: ADME
Sequence of Cytochrome P450 2C9 (P11712 whole entry): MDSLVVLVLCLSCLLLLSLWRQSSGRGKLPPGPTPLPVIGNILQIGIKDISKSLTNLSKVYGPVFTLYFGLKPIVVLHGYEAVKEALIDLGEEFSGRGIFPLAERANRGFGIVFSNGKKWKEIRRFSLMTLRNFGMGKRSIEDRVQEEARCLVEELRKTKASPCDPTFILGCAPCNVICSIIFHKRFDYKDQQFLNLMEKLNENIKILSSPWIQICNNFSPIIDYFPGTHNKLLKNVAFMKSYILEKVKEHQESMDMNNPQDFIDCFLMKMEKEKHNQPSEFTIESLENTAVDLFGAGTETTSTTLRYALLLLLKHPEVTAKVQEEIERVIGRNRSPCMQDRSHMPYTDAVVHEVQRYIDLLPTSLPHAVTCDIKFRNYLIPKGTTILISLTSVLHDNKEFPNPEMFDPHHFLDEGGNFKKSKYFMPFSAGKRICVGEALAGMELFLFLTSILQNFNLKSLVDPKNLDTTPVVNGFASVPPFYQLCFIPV

Cytochrome P450 2C19 = Cytochrome P450 2C19 (Homo sapiens, UniProt P33261); test: Inhibition of human recombinant CYP2C19; assay type: ADME
Sequence of Cytochrome P450 2C19 (P33261 whole entry): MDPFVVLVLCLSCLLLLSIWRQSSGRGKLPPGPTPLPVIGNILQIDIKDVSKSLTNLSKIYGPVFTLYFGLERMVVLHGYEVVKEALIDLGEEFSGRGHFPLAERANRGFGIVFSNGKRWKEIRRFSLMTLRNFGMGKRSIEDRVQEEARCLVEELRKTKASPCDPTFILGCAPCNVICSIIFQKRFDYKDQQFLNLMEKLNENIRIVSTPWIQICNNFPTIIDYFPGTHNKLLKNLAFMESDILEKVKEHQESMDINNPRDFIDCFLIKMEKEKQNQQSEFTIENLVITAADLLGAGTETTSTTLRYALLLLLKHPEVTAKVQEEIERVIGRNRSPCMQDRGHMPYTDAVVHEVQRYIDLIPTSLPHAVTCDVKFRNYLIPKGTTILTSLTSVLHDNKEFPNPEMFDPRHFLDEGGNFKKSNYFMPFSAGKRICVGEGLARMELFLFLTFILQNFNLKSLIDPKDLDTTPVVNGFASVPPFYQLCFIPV

[4] = Elimination half life in iv dosed cynomolgus monkey; assay type: ADME, organism-based, Macaca fascicularis; conditions: in vivo, read-out: beta t1/2 (converted)
[5] = Terminal half life in Sprague-Dawley rat at 3 mg/kg, iv; assay type: ADME, organism-based; design: dose 3 mg/kg, route intravenous; conditions: in vivo, read-out: beta t1/2 (converted)
Cytochrome P450 3A4 = Cytochrome P450 3A4 (Homo sapiens, UniProt P08684); test: Inhibition of human recombinant CYP3A4
Sequence of Cytochrome P450 3A4 (P08684 whole entry): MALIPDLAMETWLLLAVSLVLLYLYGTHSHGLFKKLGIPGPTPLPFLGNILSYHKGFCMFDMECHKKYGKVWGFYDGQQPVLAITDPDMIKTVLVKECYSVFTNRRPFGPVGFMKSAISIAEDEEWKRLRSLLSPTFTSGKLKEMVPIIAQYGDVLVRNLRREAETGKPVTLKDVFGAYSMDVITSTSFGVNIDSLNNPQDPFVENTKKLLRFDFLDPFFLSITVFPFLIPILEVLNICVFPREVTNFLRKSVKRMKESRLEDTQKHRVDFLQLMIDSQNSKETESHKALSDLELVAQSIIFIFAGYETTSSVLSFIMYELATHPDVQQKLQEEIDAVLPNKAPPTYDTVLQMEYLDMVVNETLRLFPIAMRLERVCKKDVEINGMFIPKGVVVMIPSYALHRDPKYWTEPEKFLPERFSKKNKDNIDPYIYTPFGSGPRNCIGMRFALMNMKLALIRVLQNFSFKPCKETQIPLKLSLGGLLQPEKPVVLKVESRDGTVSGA

Liver microsome = test: Clearance in rat liver microsomes at 1 to 3 uM after 20 mins by LC/MS/MS analysis
[6] = Fraction unbound in rat plasma at 10 uM by equilibrium dialysis method; assay type: ADME, cell-free
Rattus norvegicus [7] = test: Antiobesity activity in diet-induced obese rat as reduction in body weight at 1 mg/kg, po after 28 days; assay type: functional; design: scale not given: the % may be the effect or the level left
[8] = Drug excretion in bile duct-cannulated rat bile assessed as M + 2O-2H and M + O + glucuronide level at 5 mg/kg, po after 48 hrs; assay type: ADME, organism-based; design: dose 5 mg/kg, route oral; conditions: in vivo
[9] = Oral bioavailability in dog; assay type: ADME, organism-based, Canis lupus familiaris; conditions: in vivo
[10] = Oral bioavailability in Sprague-Dawley rat; assay type: ADME, organism-based; conditions: in vivo
Rattus norvegicus [11] = test: Antiobesity activity in rat assessed as reduction in body weight at 10 mg/kg after 4 days; assay type: functional; design: scale not given: the % may be the effect or the level left
[12] = Drug excretion in bile duct-cannulated rat bile at 5 mg/kg, po after 48 hrs; assay type: ADME, organism-based; design: dose 5 mg/kg, route oral; conditions: read-out: Drug excretion
[13] = Fraction unbound in human plasma at 10 uM by equilibrium dialysis method; assay type: ADME, cell-free
Rattus norvegicus [14] = test: Drug excretion in bile duct-cannulated rat assessed as M + O + glucuronide level at 5 mg/kg, po; assay type: ADME, organism-based; design: dose 5 mg/kg, route oral; conditions: in vivo
[15] = Drug excretion in bile duct-cannulated rat urine assessed as M + 2O-2H and M + O + glucuronide level at 5 mg/kg, po after 48 hrs; assay type: ADME, organism-based; design: dose 5 mg/kg, route oral; conditions: in vivo
[16] = Oral bioavailability in cynomolgus monkey; assay type: ADME, organism-based, Macaca fascicularis; conditions: in vivo
Rattus norvegicus [17] = test: Antiobesity activity in diet-induced obese rat as reduction in body weight at 3 mg/kg, po after 28 days; assay type: functional; design: scale not given: the % may be the effect or the level left
Rattus norvegicus [18] = test: Antiobesity activity in rat assessed as reduction in body weight at 3 mg/kg after 4 days; assay type: functional; design: scale not given: the % may be the effect or the level left
Rattus norvegicus [19] = test: Drug excretion in bile duct-cannulated rat assessed as M + 2O-2H level at 5 mg/kg, po; assay type: ADME, organism-based; design: dose 5 mg/kg, route oral; conditions: in vivo
Rattus norvegicus [20] = test: Antiobesity activity in diet-induced obese rat as reduction in body weight at 10 mg/kg, po after 28 days; assay type: functional; design: scale not given: the % may be the effect or the level left
[21] = Drug excretion in bile duct-cannulated rat at 5 mg/kg, po; assay type: ADME, organism-based; design: dose 5 mg/kg, route oral; conditions: read-out: Drug excretion
[22] = Metabolic stability in rat hepatocytes assessed as compound remaining at 0.5 to 3 uM after 2 hrs by LC-MS/MS analysis; assay type: ADME, cell-based, Hepatocyte; conditions: read-out: Stability
[23] = Elimination half life in human; assay type: ADME, organism-based; conditions: in vivo, read-out: beta t1/2 (converted)
Rattus norvegicus [24] = test: Antiobesity activity in rat assessed as reduction in body weight at 10 mg/kg, qd after 4 days; assay type: functional; design: scale not given: the % may be the effect or the level left

- solubility [1]: 3 µg/mL (≈ 5.31 µM)
- half-life [2]: 70 h
- logP [3]: 4.6
- Ki (Cannabinoid receptor 1): 1.4 nM
- IC50 (Cytochrome P450 2C9): > 40000 nM
- IC50 (Cytochrome P450 2C19): > 40000 nM
- half-life [4]: 40 h
- half-life [5]: 7 h
- IC50 (Cytochrome P450 3A4): > 40000 nM
SMILES: CCn1nc2c(-c3ccc(Cl)cc3)c(-c3ccc(C#N)cc3)c(=O)n(Cc3ccc(C(F)(F)F)nc3C)n2c1=O

- logP [3]: 5
- Ki (Cannabinoid receptor 1): 3 nM
- CLH (Liver microsome): 0 nmol/min/mg
SMILES: CCn1nc2c(-c3ccc(Cl)cc3)c(-c3ccc(C#N)c(C)c3)c(=O)n(Cc3ccc(C(F)(F)F)nc3C)n2c1=O

- logP [3]: 5
- Ki (Cannabinoid receptor 1): 1.6 nM
- CLH (Liver microsome): 0.152 nmol/min/mg
SMILES: CCc1nc(C(F)(F)F)ccc1Cn1c(=O)c(-c2ccc(C#N)cc2)c(-c2ccc(Cl)cc2)c2nn(CC)c(=O)n21

- logP [3]: 5.2
- Ki (Cannabinoid receptor 1): 1.9 nM
- CLH (Liver microsome): 0.014 nmol/min/mg
SMILES: Cc1nc(C(F)(F)F)ccc1Cn1c(=O)c(-c2ccc(C#N)cc2)c(-c2ccc(Cl)cc2)c2nn(C(C)C)c(=O)n21

- logP [3]: 5.2
- Ki (Cannabinoid receptor 1): 12 nM
SMILES: CCn1nc2c(-c3ccc(Cl)cc3)c(-c3ccc(C#N)cc3)c(=O)n(Cc3ccc(C)cc3)n2c1=O

- logP [3]: 4.6
- Ki (Cannabinoid receptor 1): 2.9 nM
- CLH (Liver microsome): 0.052 nmol/min/mg
SMILES: CCn1nc2c(-c3ccc(C)cc3)c(-c3ccc(C#N)cc3)c(=O)n(Cc3ccc(C(F)(F)F)nc3C)n2c1=O

- half-life [2]: 45 h
- logP [3]: 4.2
- Ki (Cannabinoid receptor 1): 5 nM
- fraction unbound at 10 µM [6]: 0.01
- half-life [4]: 8 h
SMILES: CCn1nc2c(-c3ccc(Cl)cc3)c(-c3ccc(C#N)cc3)c(=O)n(Cc3ccc(C#N)cc3)n2c1=O

- half-life [2]: 7 h
- logP [3]: 3.6
- Ki (Cannabinoid receptor 1): 5 nM
- fraction unbound at 10 µM [6]: 0.09
- half-life [4]: 9 h
- half-life [5]: 1.1 h
SMILES: CCn1nc2c(-c3ccc(Cl)cc3)c(-c3ccc(CO)nc3)c(=O)n(Cc3ccc(C(F)(F)F)nc3C)n2c1=O

SMILES: CCn1nc2c(-c3ccc(Cl)cc3)c(-c3cnc(C)nc3)c(=O)n(Cc3ccc(C(F)(F)F)nc3C)n2c1=O
- Activity (Rattus norvegicus [7]): 2.4%
- Drug excretion [8]: 76 %ID
- bioavailability [9]: 75%
- solubility [1]: 17 µg/mL (≈ 30.6 µM)
- bioavailability [10]: 73%
- half-life [2]: 42 h
- logP [3]: 3.8
- Activity (Rattus norvegicus [11]): 7.2%
- Ki (Cannabinoid receptor 1): 4.7 nM
- dose excreted at 48 h [12]: 0.8%
- fraction unbound at 10 µM [6]: 0.13
- fraction unbound at 10 µM [13]: 0.07
- IC50 (Cytochrome P450 2C9): > 40000 nM
- Drug excretion (Rattus norvegicus [14]): 26 %ID
- Drug excretion [15]: 7 %ID
- bioavailability [16]: 51%
- Activity (Rattus norvegicus [17]): 4.1%
- IC50 (Cytochrome P450 2C19): > 40000 nM
- Activity (Rattus norvegicus [18]): 2.8%
- Drug excretion (Rattus norvegicus [19]): 36 %ID
- half-life [4]: 12 h
- Activity (Rattus norvegicus [20]): 10.2%
- dose excreted [21]: < 1%
- half-life [5]: 5 h
- remaining at 2 h, 3 µM [22]: 5%
- IC50 (Cytochrome P450 3A4): > 40000 nM

- logP [3]: 4.3
- Ki (Cannabinoid receptor 1): 3.2 nM
- IC50 (Cytochrome P450 2C9): 14000 nM
- IC50 (Cytochrome P450 2C19): 5000 nM
- IC50 (Cytochrome P450 3A4): 7000 nM
SMILES: CCn1nc2c(-c3ccc(Cl)cc3)c(-c3ccncc3F)c(=O)n(Cc3ccc(C(F)(F)F)nc3C)n2c1=O

- logP [3]: 3.8
- Ki (Cannabinoid receptor 1): 92 nM
- IC50 (Cytochrome P450 2C9): > 40000 nM
- IC50 (Cytochrome P450 2C19): > 40000 nM
- IC50 (Cytochrome P450 3A4): 3400 nM
SMILES: CCn1nc2c(-c3ccc(Cl)cc3)c(-c3cnn(C)c3)c(=O)n(Cc3ccc(C#N)cc3)n2c1=O

- logP [3]: 4.3
- Ki (Cannabinoid receptor 1): 77 nM
- IC50 (Cytochrome P450 2C9): > 40000 nM
- IC50 (Cytochrome P450 2C19): > 40000 nM
- IC50 (Cytochrome P450 3A4): > 40000 nM
SMILES: CCn1nc2c(-c3ccc(Cl)cc3)c(-c3cnc(N(C)C)nc3)c(=O)n(Cc3ccc(C#N)cc3)n2c1=O

- half-life [23]: 120 h
SMILES: CCNC1(C(N)=O)CCN(c2ncnc3c2nc(-c2ccccc2Cl)n3-c2ccc(Cl)cc2)CC1 [OTENABANT]

SMILES: Cc1c(C(=O)NN2CCCCC2)nn(-c2ccc(Cl)cc2Cl)c1-c1ccc(Cl)cc1 [RIMONABANT]
- Activity (Rattus norvegicus [24]): 5%
- Activity (Rattus norvegicus [20]): 6.2%
- half-life [23]: 216 h

- half-life [23]: 72 h
SMILES: C[C@H](NC(=O)C(C)(C)Oc1ccc(C(F)(F)F)cn1)[C@@H](Cc1ccc(Cl)cc1)c1cccc(C#N)c1 [TARANABANT]
